Consider eleven compounds from US10053434B2, “Histone deacetylase inhibitors and compositions and methods of use thereof” (CHDI Foundation, Inc., priority 2015, dated 2018).

Counter-ions that a name gives are not always drawn.

In assay [1] the target is human catalytic domain HDAC4 protein (amino acids 648-1032) (Homo sapiens (Human), UniProt P56524). As to the kind of experiment: HDAC4 catalytic domain enzymatic activity, fluorogenic substrate Boc-Lys(TFA)-AMC. Conditions: read-out: HDAC4 Biochemical IC50. From the text: Example 25: Analysis of Inhibition of HDAC4 with Class IIa Histone Deacetylase (HDAC) Inhibitors
The potency of Class IIa Histone Deacetylase (HDAC) inhibitors was quantified by measuring the Histone Deacetylase 4 (HDAC4) catalytic domain enzymatic activity using the fluorogenic substrate, Boc-Lys(TFA)-AMC. The substrate was deacetylated to Boc-Lys-AMC by HDAC4. […] The fluorescence of the sample was directly related to the histone deacetylase activity in the sample.
(§1) Serially Dilute HDAC Inhibitor Compounds.
Serial dilutions of the HDAC inhibitors and control reference compound (1-(5-(3-((4-(1,3,4-oxadiazol-2-yl)phenoxy)methyl)-1,2,4-oxadiazol-5-yl)thiophen-2-yl)-2,2,2-trifluoroethanone) were made by first resuspending the lyophilized compound to a final concentration of 10 mM in 100% dimethyl sulfoxide (DMSO). Stocks of 60 μL aliquots of the 10 mM compound in DMSO were prepared and stored at −20° C. From one stock aliquot of each tested compound and the reference compound, a 16-point serial dilution was prepared according to Table 1 using a 125 μL 16-channel Matrix multi-channel pipette (Matrix Technologies Ltd).
2 μL (200×) of each diluted solution and each control (full activity: 100% DMSO alone or full inhibition 1 mM) was stamped into V-bottomed polypropylene 384-well compound plates using either the Bravo (384-well head from Agilent) or 12.5 μL 16-channel Matrix multi-channel pipette (Matrix Technologies Ltd). Each well with the 200× compound solution was diluted 1:20 by the addition of 38 μL assay buffer+DMSO (10.5% DMSO, 45 mM Tris-HCl, 123 mM NaCl, 2.4 mM KCl, and 0.9 mM MgCl2 at pH 8.0 and equilibrated to r.t.).
Prepare HDAC4 Catalytic Domain Enzyme (0.2 μg/mL).
The HDAC4 catalytic domain enzyme was human catalytic domain HDAC4 protein (amino acids 648-1032) with a C-terminal 6× histidine tag, produced by BioFocus. A working solution of enzyme was prepared from a […] stock aliquot of HDAC4 catalytic domain (thawed on ice) diluted to 0.2 μg/mL with assay buffer (50 mM Tris-HCl, 137 mM NaCl, 2.7 mM KCl, and 1 mM MgCl2 at pH 8 and equilibrated to r.t.) just prior to the addition of the enzyme to the assay.
Prepare 5× (50 μM) Boc-Lys(TFA)-AMC Substrate.
5× (50 μM) substrate was prepared just prior to the addition to the assay. A 1 mM substrate stock was made by diluting a 100 mM Boc-Lys(TFA)-AMC in DMSO solution 1:100 by adding it drop-wise to assay buffer (equilibrated to r.t.) while vortexing at slow speed to prevent precipitation. The 5× substrate was prepared by diluting the 1 mM substrate solution 1:20 by adding it drop-wise to assay buffer (equilibrated to r.t.) while vortexing at slow speed to prevent precipitation.
Prepare 3× (30 μM) Developer/Stop Solution.
3× (30 μM) Developer/Stop Solution was prepared just prior to addition to the plate by diluting a stock solution of 10 mM reference compound 1:333 in 25 mg/mL trypsin (PAA Laboratories Ltd.) equilibrated to r.t.
5 μL of each solution of 1:20 diluted compound from above was transferred to a clear bottomed, black, 384-well assay plate using the Bravo or the Janus (384-well MDT head from Perkin Elmer). Using a 16-channel Matrix multi-channel pipette, 35 μL of the working solution of HDAC4 catalytic domain enzyme (0.2 μg/mL in assay buffer) was transferred to the assay plate. The assay was then started by adding 10 μL of 5× (50 μM) substrate to the assay plates using either the Bravo, Janus or 16-channel Matrix multi-channel pipette. The assay plate was then shaken for two minutes on an orbital shaker at 900 rpm (rotations per minute). Next the plate was incubated for 15 minutes at 37° C. The reaction was stopped by adding 25 μL of 3× (30 μM) developer/stop solution to the assay plates using either the Bravo, Janus or a 16-channel Matrix multi-channel pipette. Assay plates were then shaken for 5 minutes on an orbital shaker at 1200 rpm. Next, the assay plates were incubated at 37° C. for 1 hour in a tissue culture incubator. […]

In assay [2] the test system is Cellular Class I HDAC activity. The assay can be described thus: Inhibition of cellular Class I HDAC activity; Cell (Lys-Ac) substrate, Jurkat E6-1 cells. Type of assay: cell-based. To be noted: Boc-Lys(Ac)-AMC substrate. An excerpt: (§2) The potency of Class IIa Histone Deacetylase (HDAC) inhibitors was quantified by measuring the cellular histone deacetylase enzymatic activity using the fluorogenic substrate, Boc-Lys(TFA)-AMC. After penetration in Jurkat E6-1 cells, the substrate was deacetylated to Boc-Lys-AMC. After cell lysis and cleavage by trypsin, the fluorophore AMC was released from the deacetylated substrate only. The fluorescence of the sample was directly related to the histone deacetylase activity in the sample.
(§3) Jurkat E6.1 cells were cultured according to standard cell culture protocols in Jurkat E6.1 Growth Media (RPMI without phenol red, 10% FBS, 10 mM HEPES, and 1 mM Sodium Pyruvate). Jurkat E6.1 cells were counted using a Coulter Counter and resuspended in Jurkat E6.1 growth media at a concentration of 75,000 cells/35 μL. 35 μL or 75,000 cells was seeded into Greiner microtitre assay plates. The plates were then incubated at 37° C. and 5% CO2 while other assay components were being prepared.
(§4) Serial dilutions of the HDAC inhibitors and control reference compound (1-(5-(3-((4-(1,3,4-oxadiazol-2-yl)phenoxy)methyl)-1,2,4-oxadiazol-5-yl)thiophen-2-yl)-2,2,2-trifluoroethanone) were made by first resuspending the lyophilized compound to a final concentration of 10 mM in 100% DMSO. Stocks of 70 μL aliquots of the 10 mM compound in DMSO were prepared and stored at −20° C. From one stock aliquot of each tested compound and the reference compound, a 16-point serial dilution was prepared according to Table 1 using a 125 μL 16-channel Matrix multi-channel pipette.
(§5) 2 μL (200×) of each diluted solution and each control (full activity: 100% DMSO alone or full inhibition 1 mM) was stamped into V-bottom polypropylene 384-well compound plates using either the Bravo, Janus, or 12.5 μL 16-channel Matrix multi-channel pipette. Each well with the 200× compound solution was diluted 1:20 by the addition of 38 μL Jurkat assay buffer+DMSO (9.5% DMSO, RPMI without phenol red, 0.09% FBS, 9 mM Hepes, and 0.9 mM Sodium Pyruvate equilibrated to r.t.)
(§6) 5× (500 μM) substrate was prepared just prior to the addition to the assay. The 5× substrate was prepared by diluting a 100 mM Boc-Lys(TFA)-AMC in DMSO solution 1:200 by adding it drop-wise to Jurkat assay medium (RPMI without phenol red, 0.1% FBS, 10 mM Hepes, and 1 mM Sodium Pyruvate equilibrated to 37° C.) while vortexing at slow speed to prevent precipitation.
(§7) 10 mL of 3× lysis buffer was prepared with 8.8 mL of 3× stock lysis buffer (50 mM Tris-HCl, pH 8.0, 137 mM NaCl, 2.7 mM KCl, 1 mM MgCl2, 1% Nonidet P40 Substitute equilibrated to r.t.) and 1.2 mL of 3 mg/mL Trypsin equilibrated to r.t.
(§8) 5 μL of each solution of 1:20 diluted compound from above was transferred to the Greiner microtitre assay plates with 75,000 cells/well using the Bravo. Cells were then incubated for 2 hours at 37° C. and 5% CO2. The assay was then started by adding 10 μL of 5× (500 μM) substrate to the assay plate using either the Bravo or 16-channel Matrix multi-channel pipette. The cells were then incubated for 3 hours at 37° C. and 5% CO2. Next, 25 μL of 3× lysis buffer was added to each well using either the 125 μL 16 channel pipette or the Bravo. The assay plate was then incubated overnight (15-16 hours) at 37° C. and 5% CO2. The following day, the plates were shaken on an orbital shaker for 1 minute at 900 rpm. Finally the top read fluorescence (Excitation: 355 nm, Emission: 460 nm) was measured using PerkinElmer EnVision.
Example 30: Analysis of Inhibition of Cellular Class I HDAC Activity with Class IIa Histone Deacetylase (HDAC) Inhibitors; Cell (Lys-Ac) Substrate
The Class I HDAC activity of Class IIa Histone Deacetylase (HDAC) inhibitors was quantified by measuring the cellular histone deacetylase enzymatic activity using the fluorogenic substrate, Boc-Lys(Ac)-AMC. This was performed according to the procedure in Example 29, using Boc-Lys(Ac)-AMC substrate in place of Boc-Lys(TFA)-AMC.

Assay [3] has as its system Cellular Class IIa HDAC activity. The assay can be described thus: Inhibition of cellular Class IIa HDAC activity; Cell (Lys-TFA) substrate, Jurkat E6-1 cells. Type of assay: cell-based. To be noted: Boc-Lys(TFA)-AMC substrate.
Excerpt: Example 29: Analysis of Inhibition of Cellular Class IIa HDAC Activity with Class IIa Histone Deacetylase (HDAC) Inhibitors; Cell (Lys-TFA) Substrate
as §2
Jurkat E6.1 Cell Culture and Plating.
as §3, §1, §4, §5
Prepare 5× (500 μM) Boc-Lys(TFA)-AMC Substrate.
as §6, §7, §8

Chain of human catalytic domain HDAC4 protein (amino acids 648-1032) (P56524 648-1032): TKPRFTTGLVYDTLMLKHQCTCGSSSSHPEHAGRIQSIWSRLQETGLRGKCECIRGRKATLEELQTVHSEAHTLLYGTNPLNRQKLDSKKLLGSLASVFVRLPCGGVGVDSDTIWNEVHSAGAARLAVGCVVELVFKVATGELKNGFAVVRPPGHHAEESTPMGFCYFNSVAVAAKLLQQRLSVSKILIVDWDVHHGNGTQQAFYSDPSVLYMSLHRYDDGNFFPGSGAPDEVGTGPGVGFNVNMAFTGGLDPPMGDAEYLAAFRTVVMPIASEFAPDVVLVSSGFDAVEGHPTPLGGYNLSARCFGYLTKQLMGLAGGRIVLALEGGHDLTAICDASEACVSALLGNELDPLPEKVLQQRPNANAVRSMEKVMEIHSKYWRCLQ

For orientation: IC50 means the concentration that gives 50% inhibition. As for `C[C@H](CN1CC2CCCC2C1)NC(=O)c1ccc(-c2noc(C(F)(F)F)n2)cc1` (stereo partly drawn) [Example 17, 2-((R)-2-(4-(5-(Trifluoromethyl)-1,2,4-oxadiazol-3-yl)benzamido)propyl)octahydrocyclopenta[c]pyrrol-2-ium formate], the IC50 is 12 nM in assay [1], 690 nM in assay [2] and 28 nM in assay [3].
`C[C@H](CN1CC2C(C1)C2(C)C)NC(=O)c1ccc(-c2noc(C(F)(F)F)n2)cc1` (stereo partly drawn) [Example 22, N-((2R)-1-(6,6-Dimethyl-3-azabicyclo[3.1.0]hexan-3-yl)propan-2-yl)-4-(5-(trifluoromethyl)-1,2,4-oxadiazol-3-yl)benzamide]: the values for the IC50 in assay [1], in assay [2] and in assay [3] were 20 nM, 6100 nM and 86 nM, respectively.
Regarding `O=C(N[C@H](CN1CCCC1)C1CC1)c1ccc(-c2noc(C(F)(F)F)n2)cc1` [Example 5, (S)—N-(1-Cyclopropyl-2-(pyrrolidin-1-yl)ethyl)-4-(5-(trifluoromethyl)-1,2,4-oxadiazol-3-yl)benzamide], the figures for the IC50 in assay [1], in assay [2] and in assay [3] were 48 nM, 25700 nM and 710 nM, respectively.
For `O=C(NCCN1CC2CCC(C2)C1)c1ccc(-c2noc(C(F)(F)F)n2)cc1` [Example 2, N-(2-(3-Azabicyclo[3.2.1]octan-3-yl)ethyl)-4-(5-(trifluoromethyl)-1,2,4-oxadiazol-3-yl)benzamide], in that order: 140 nM, 4900 nM and 330 nM.
For `C[C@H](CN1CCc2ccccc2C1)NC(=O)c1ccc(-c2noc(C(F)(F)F)n2)cc1` [Example 7, (R)—N-(1-(3,4-Dihydroisoquinolin-2(1H)-yl)propan-2-yl)-4-(5-(trifluoromethyl)-1,2,4-oxadiazol-3-yl)benzamide], in that order: 9 nM, 2400 nM and 18 nM.
Consider `Cc1cc(C(=O)N[C@H](C)CN2CCC[C@@H]2C)ccc1-c1noc(C(F)(F)F)n1` [Example 1, (2S)-2-Methyl-1-((R)-2-(3-methyl-4-(5-(trifluoromethyl)-1,2,4-oxadiazol-3-yl)benzamido)propyl)pyrrolidin-1-ium formate], for which the IC50 in assay [1] was 100 nM; in assay [2], above 50000 nM; in assay [3] it was 1600 nM.
Taken in the same sequence, the figures for `O=C(N[C@@H](CN1CCCC1)C1CC1)c1ccc(-c2noc(C(F)(F)F)n2)cc1` [Example 6, (R)—N-(1-Cyclopropyl-2-(pyrrolidin-1-yl)ethyl)-4-(5-(trifluoromethyl)-1,2,4-oxadiazol-3-yl)benzamide] were 77 nM, above 50000 nM and 750 nM.
For the compound `C[C@H](CN1CCCC(OC(F)F)C1)NC(=O)c1ccc(-c2noc(C(F)(F)F)n2)cc1` (single isomer, unassigned) [Example 10], the IC50 was found to be 3 nM in assay [1], 1500 nM in assay [2] and 7 nM in assay [3].
Take `C[C@H](CN1CC2CCCC21)NC(=O)c1ccc(-c2noc(C(F)(F)F)n2)cc1` (single isomer, unassigned) [Example 20]: the results for the IC50 in assay [1], in assay [2] and in assay [3] were 22 nM, 7800 nM and 150 nM, respectively.
Taken in the same sequence, the figures for `C[C@H](CN1CCC12CCC2)NC(=O)c1ccc(-c2noc(C(F)(F)F)n2)cc1` [Example 14, (R)—N-(1-(1-Azaspiro[3.3]heptan-1-yl)propan-2-yl)-4-(5-(trifluoromethyl)-1,2,4-oxadiazol-3-yl)benzamide] were 16 nM, 7700 nM and 180 nM.
Taken in the same sequence, the figures for `C[C@H](CN1CCC[C@@H]1C)NC(=O)c1ccc(-c2noc(C(F)(F)F)n2)cn1` [Example 24, N—((R)-1-((S)-2-Methylpyrrolidin-1-yl)propan-2-yl)-5-(5-(trifluoromethyl)-1,2,4-oxadiazol-3-yl)picolinamide] were 134 nM, 33700 nM and 1030 nM.
